PubChem BioAssay (NCI)
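In this assay, cells in 96-well plates receive the compound at five concentrations for 48 hours. Endpoints are linearly interpolated between the surrounding concentrations. At the TGI there is no net growth.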

Columns and labels:
Experiment in all cases: NCI-60 cell line screen, 48 h
HS 578T breast = system: HS 578T breast
ACHN renal = system: ACHN renal
UACC-257 melanoma = system: UACC-257 melanoma
A549 NSCLC = system: A549 NSCLC
SF-295 CNS = system: SF-295 CNS
M14 melanoma = system: M14 melanoma
HCT-116 colon = system: HCT-116 colon
NCI-H460 lung = system: NCI-H460 lung
IGROV1 ovarian = system: IGROV1 ovarian
CCRF-CEM leukemia = system: CCRF-CEM leukemia

SMILES	TGI (HS 578T breast)	TGI (ACHN renal)	TGI (UACC-257 melanoma)	TGI (A549 NSCLC)	TGI (SF-295 CNS)	TGI (M14 melanoma)	TGI (HCT-116 colon)	TGI (NCI-H460 lung)	TGI (IGROV1 ovarian)	TGI (CCRF-CEM leukemia)
OCCCCCCCCCCCOc1ccc(C2OCC3(CO2)COC(c2ccc(OCCCCCCCCCCCO)cc2)OC3)cc1 (stereo not given)	> 50 µM	> 50 µM	> 50 µM	> 50 µM	> 50 µM	> 50 µM	> 50 µM	> 50 µM	> 50 µM	
COc1cc2cc3c4c(cc(OC)c(OC)c4c2cc1OC)CCN3C(=O)OCCN1CCNCC1		28.3 µM	29.1 µM	34.4 µM	28.2 µM	27.9 µM	24.2 µM	26.6 µM	32.2 µM	44.6 µM
O=C1C(Cl)N(c2ccc(Cl)cc2)C1c1c[nH]c2ccccc12 (stereo not given)			31.6 µM	> 100 µM	31.5 µM	42.3 µM	28.2 µM	30.1 µM	62.6 µM	> 100 µM
Cc1cc(N)c(C)c2c1[nH]c1ccc(O)cc12		> 100 µM	> 100 µM	> 100 µM	> 100 µM	> 100 µM	> 100 µM	> 100 µM		91.5 µM
CC(C)CC1C(=O)NCCC(NC(=O)C(Cc2ccc(OC(C)(C)C)cc2)NC(=O)OC(C)(C)C)C(=O)NC(Cc2ccccc2)C(=O)NC(Cc2ccccc2)NC1=O (stereo not given)	> 100 µM	23.3 µM	26.2 µM		22.8 µM	32.2 µM	17.4 µM	15 µM	31.7 µM	55 µM
CS(=O)(=O)O[C@H]1CN2C[C@@H](O)[C@@H](O)[C@H]2[C@H]1CO		> 100 µM	> 100 µM	> 100 µM	> 100 µM	> 100 µM	> 100 µM	> 100 µM	> 100 µM	> 100 µM
O=C1C2CC=CCC2C(=O)N1n1c(Cc2ccc(Cl)cc2)n[nH]c1=O (stereo not given)	> 100 µM	> 100 µM	> 100 µM	> 100 µM	> 100 µM	> 100 µM	> 100 µM		> 100 µM	> 100 µM
CN(C(=O)C1=CCC2(CC1)OCCO2)c1ccccc1OS(=O)(=O)C(F)(F)F		> 100 µM	> 100 µM	> 100 µM	> 100 µM	> 100 µM	> 100 µM	> 100 µM		> 100 µM
CC(C)(C)[Si](C)(C)OCC1OC(n2ccc(N)nc2=O)C(O[Si](C)(C)C(C)(C)C)C1O[Si](C)(C)C(C)(C)C (stereo not given)	7.89 µM	3.21 µM	10.4 µM	11.6 µM	3.75 µM	3.24 µM	11.6 µM	3.7 µM	3.94 µM	
COc1ccc(N2C(=O)CC(C3CC(C(C)(C)C)CCC3=O)C2=O)cc1 (stereo not given)	> 100 µM	> 100 µM	> 100 µM	> 100 µM		> 100 µM	> 100 µM	> 100 µM	> 100 µM	> 100 µM
O=C1NC(NNc2ccccc2)=N/C1=C\c1ccccc1O	> 100 µM	> 100 µM	> 100 µM	> 100 µM	> 100 µM	> 100 µM	> 100 µM	> 100 µM	> 100 µM	
CCc1cc2c(oc3cc4ccccc4cc32)c(=O)[nH]1	> 10 µM	> 10 µM	> 10 µM	> 10 µM	> 10 µM	> 10 µM	> 10 µM	> 10 µM	> 10 µM	
COc1cc(/C=C2\C[C@H]3[C@@H]4CCc5cc(O)ccc5[C@H]4CC[C@]3(C)C2=O)cc(OC)c1OC		38.7 µM	34.1 µM	31.8 µM	27.4 µM	37.7 µM	28.6 µM	> 100 µM	32.8 µM	27.4 µM
O=C(C=P(c1ccccc1)(c1ccccc1)c1ccccc1)c1ccc(-c2cccc([N+](=O)[O-])c2)s1	> 100 µM	> 100 µM		> 100 µM	> 100 µM	> 100 µM	> 100 µM	> 100 µM	> 100 µM	> 100 µM
CC1(C)CC(=O)c2[nH]c3ccccc3c2CC(=O)NCCc2cn1cn2	> 100 µM	> 100 µM	> 100 µM	> 100 µM	> 100 µM	> 100 µM	> 100 µM	> 100 µM	> 100 µM	
COc1cc(C(=O)n2c3ccc(Br)cc3c3nc4ccccc4nc32)cc(OC)c1OC		> 100 µM	> 100 µM		> 100 µM	> 100 µM	> 100 µM	> 100 µM	> 100 µM	> 100 µM
COc1ccc(C2COc3cc(OC(C)=O)c(OC(C)=O)cc3C2)cc1 (stereo not given)			46.5 µM	52.5 µM	38.7 µM		47.3 µM	41.7 µM	55.9 µM	16.4 µM
CCOC(=O)C1(C#N)C(c2ccccc2)CC(O)(c2ccc(OC)cc2)C(C(=O)c2ccc(OC)cc2)C1c1ccccc1 (stereo not given)		> 100 µM	> 100 µM	> 100 µM	> 100 µM	> 100 µM	> 100 µM	> 100 µM	> 100 µM	> 100 µM
Cc1cc(C)nc(NC(=O)c2ccc(Br)s2)c1		> 100 µM	> 100 µM	> 100 µM	> 100 µM	79.5 µM	> 100 µM	> 100 µM	> 100 µM	15.6 µM
O=c1cc(N2CCOCC2)[nH]c(=O)n1-c1ccc(F)cc1	> 100 µM	> 100 µM	> 100 µM		> 100 µM	> 100 µM	> 100 µM	> 100 µM	> 100 µM	> 100 µM
O=c1cnn(C/C=C/CBr)c(=O)[nH]1	> 100 µM	37.1 µM	26.9 µM	33.9 µM		35.9 µM		36.5 µM	37.7 µM	47.6 µM
CC(C)(Br)C(Br)CCC1(C2CO2)CO1 (stereo not given)	> 5 µM	> 5 µM	> 5 µM	> 5 µM	> 5 µM	> 5 µM	> 5 µM		> 5 µM	> 5 µM
OCC1OC(c2cccc3cc(O)c(O)cc23)CC1O (stereo not given)	> 100 µM	> 100 µM	> 100 µM	> 100 µM	> 100 µM	> 100 µM	> 100 µM	> 100 µM	> 100 µM	
